Laboratory results: patent US10654834B2 (Venenum Biodesign, LLC, priority 2016, dated 2020)
pEC50: −log10 of the molar value. Like-named read-outs stand apart in the source and are kept apart here.

What was measured:
[1] = target: T1, human TGR5 receptor (Homo sapiens, UniProt Q8TDU6); assay: Human TGR5 cAMP production assay (hTGR5-CHO cells, DiscoveRx cAMP XS+ kit); format: cell-based; settings: luminescent cAMP assay, read-out: Human TGR5 Lum. cAMP Activity (EC50)
T1 construct: host or cells: CHO-K1 (hTGR5-CHO)
T1 sequence (Q8TDU6 1-330): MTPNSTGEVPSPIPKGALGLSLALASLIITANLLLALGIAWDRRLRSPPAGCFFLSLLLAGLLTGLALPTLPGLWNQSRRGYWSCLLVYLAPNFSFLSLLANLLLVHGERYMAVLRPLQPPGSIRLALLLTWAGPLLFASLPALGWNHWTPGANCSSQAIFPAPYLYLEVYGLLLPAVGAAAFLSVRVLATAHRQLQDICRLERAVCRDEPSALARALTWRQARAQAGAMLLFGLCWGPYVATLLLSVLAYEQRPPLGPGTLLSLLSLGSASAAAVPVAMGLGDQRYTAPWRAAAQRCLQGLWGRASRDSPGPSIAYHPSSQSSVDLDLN
Summary of the method: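 EC50 values come from luminescent enzyme-complementation cAMP detection, read after overnight incubation. Beforehand, hTGR5-expressing CHO-K1 cells with IBMX and anti-cAMP antibody were exposed 1 h at room temperature to serially diluted (half-log) compounds.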

[2] = target: T2, mouse TGR5 receptor (Mus musculus, UniProt Q80SS6); assay: Mouse TGR5 HTRF cAMP production assay (HEK293-EBNA cells, Cisbio cAMP HiRange kit); format: cell-based; settings: HEK293-EBNA cells overexpressing mouse TGR5, HTRF cAMP assay
T2 construct: host or cells: HEK293-EBNA (293 c18, ATCC CRL10852)
T2 sequence (Q80SS6 1-329): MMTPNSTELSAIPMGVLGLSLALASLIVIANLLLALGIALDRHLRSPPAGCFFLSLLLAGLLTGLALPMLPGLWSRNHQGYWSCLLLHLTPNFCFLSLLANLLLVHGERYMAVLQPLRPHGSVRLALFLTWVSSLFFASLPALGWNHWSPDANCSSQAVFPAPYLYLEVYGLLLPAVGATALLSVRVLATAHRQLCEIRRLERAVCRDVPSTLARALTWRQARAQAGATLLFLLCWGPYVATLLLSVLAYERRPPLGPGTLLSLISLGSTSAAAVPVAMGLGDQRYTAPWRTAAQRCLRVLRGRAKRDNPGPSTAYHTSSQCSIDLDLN
Summary of the method: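 cAMP accumulation was read by competitive HTRF after 1 h room-temperature compound treatment, with a further 1 h conjugate incubation. Cells were mouse TGR5-overexpressing HEK293-EBNA in serum-free DMEM plus 500 μM IBMX. Compounds ran as 12-point half-log series in duplicate, and EC50 values were reported.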

[3] = tested on: Mouse STC-1 cells; assay: STC-1 GLP-1 assay (GLP-1 secretion); format: cell-based; settings: Mouse STC-1 cells, GLP-1 secretion, 2 h; read-out: Mouse STC-1 HTRF GLP-1 Activity (EC50)
Method: Compounds of the present invention were evaluated for their ability to induce GLP-1 production in mouse intestinal neuroendocrine tumor cells.
Mouse STC-1 cells were cultured and maintained in high glucose DMEM (Sigma #5796) supplemented with 15% horse serum, 5% Fetal Bovine Serum (FBS), 1%° penicillin/streptomycin, and 2 mM L-alanine L-glutamine (GlutaMax). Two days prior to analysis of GLP-1 secretion cells were harvested using Accutase (Sigma), spun down then resuspended in high glucose DMEM media containing 2 mM L-alanine L-glutamine (GlutaMax), 10% charcoal-dextran stripped FBS, and 50 μg/mL Gentamicin, at a density of 100,000° cells/mL. 100 μL of cell suspension was added to each well of a 96-well Poly-D-Lysine coated culture plate (Sigma; cat #2382493) and was incubated at 37° C. with 5% CO2.
Compounds were initially diluted in 100% DMSO (12-point serial dilution by half logs) in a 96-well plate and then were further diluted 1:500 in Hanks' Balanced Salt Solution (HBSS) containing protease inhibitor cocktail, DPP-IV inhibitor, and 0.1% fatty acid free bovine serum albumin. On the day of the experiment cells were washed once with HBSS. After wash, 100 μL of test compound was added to each well. The plate was incubated at 37° C. with 5% CO2 for 2° h. Supernatants were collected and GLP-1 secretion was measured using the Cisbio™ Active GLP-1 HTRF Assay Kit (CisBio). Briefly, Anti-GLP-1-d2 conjugate and Anti-GLP-1 Terbium Cryptate conjugate stock solutions were prepared as per kit instructions. The two solutions were pre-mixed and 10 μL were transferred to a 384-well low volume plate (Greiner; cat #784075). 10 μL of collected supernatants were added to wells already containing the conjugate solution. The plate was covered and incubated at room temperature overnight. The plate was read on an Envision™ plate reader (PerkinElmer).
In Table 53, EC50 values were obtained from the STC-1 GLP-1 production assay for compounds of the present invention are summarized.

[4] = Pharmacokinetic profile in mice after oral gavage; format: in vivo, mouse; design: unit: ng/mL; settings: fasted male Hilltop mice, 10 mg/kg oral gavage, plasma
Summary of the method: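 Plasma exposure (Cmax, AUC) by non-compartmental analysis of LC-MS/MS data, orbital blood taken at 0, 0.25, 0.5, 1, 2 and 4 h, each value averaging three mice. Dosing: 10 mg/kg oral gavage to overnight-fasted male Hilltop mice (8 weeks), vehicle PEG400/CMC/Tween-80.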

Compound | pEC50 [1] | pEC50 [2] | pEC50 [3] | Cmax ([4]; mouse, read-out: Cmax) | Cmax [4]
N#CCCN1CCN(c2cc(N3CCC[C@H]3C(=O)NCCc3ccc(C(F)(F)F)cc3)nc(C(F)(F)F)n2)CC1 [Compound 10] | > 7.00 | > 7.00 | 6.00 to 7.00 | – | –
N#Cc1ccc(CCNC(=O)[C@@H]2CCCN2c2cc(N3CCC(CO)CC3)cc(C(F)(F)F)n2)cc1 [Compound 38] | > 7.00 | > 7.00 | 6.00 to 7.00 | – | –
N#Cc1ccc(CCNC(=O)[C@@H]2CCN2c2cc(N3CCC(CCC(=O)O)CC3)nc(C(F)(F)F)n2)cc1 [Compound 227, (S)-3-(1-(6-(2-((4-cyanophenethyl)carbamoyl)azetidin-1-yl)-2-(trifluoromethyl)pyrimidin-4-yl)piperidin-4-yl)propanoic acid] | > 7.00 | > 7.00 | 6.00 to 7.00 | – | –
CN(C)CCC1CCN(c2cc(N3CC[C@H]3C(=O)NCCc3ccc(C#N)cc3)nc(C(F)(F)F)n2)CC1 [Compound 228, (S)-N-(4-cyanophenethyl)-1-(6-(4-(2-(dimethylamino)ethyl)piperidin-1-yl)-2-(trifluoromethyl)pyrimidin-4-yl)azetidine-2-carboxamide] | > 7.00 | > 7.00 | 6.00 to 7.00 | – | –
N#CCCN1CCN(c2cc(N3CC[C@H]3C(=O)NCCc3ccc(C#N)cc3)nc(C(F)(F)F)n2)CC1 [Compound 229, (S)-1-(6-(4-(2-cyanoethyl)piperazin-1-yl)-2-(trifluoromethyl)pyrimidin-4-yl)-N-(4-cyanophenethyl)azetidine-2-carboxamide] | > 7.00 | > 7.00 | 6.00 to 7.00 | – | –
N#CCCC1CCN(c2cc(N3CC[C@H]3C(=O)NCCc3ccc(C#N)cc3)nc(C(F)(F)F)n2)CC1 [Compound 230, (S)-1-(6-(4-(2-cyanoethyl)piperidin-1-yl)-2-(trifluoromethyl)pyrimidin-4-yl)-N-(4-cyanophenethyl)azetidine-2-carboxamide] | > 7.00 | > 7.00 | 6.00 to 7.00 | – | –
COc1cc(C(F)(F)F)ccc1CCNC(=O)[C@@H]1CCN1c1cc(N2CCC(CCO)CC2)nc(C(F)(F)F)n1 [Compound 238, (5)-1-(6-(4-(2-hydroxyethyl)piperidin-1-yl)-2-(trifluoromethyl)pyrimidin-4-yl)-N-(2-methoxy-4-(trifluoromethyl)phenethyl)azetidine-2-carboxamide] | > 7.00 | > 7.00 | 6.00 to 7.00 | – | –
COc1cc(C(F)(F)F)ccc1CCNC(=O)[C@@H]1CCN1c1cc(N2CCC(CCCC(=O)O)CC2)nc(C(F)(F)F)n1 [Compound 240, (S)-4-(1-(6-(2-((2-methoxy-4-(trifluoromethyl)phenethyl)carbamoyl)azetidin-1-yl)-2-(trifluoromethyl)pyrimidin-4-yl)piperidin-4-yl)butanoic acid] | > 7.00 | > 7.00 | > 7.00 | – | –
N#Cc1ccc(CCNC(=O)[C@@H]2CCN2c2cc(N3CCC(CCC(=O)NCCS(=O)(=O)O)CC3)nc(C(F)(F)F)n2)cc1 [Compound 262] | > 7.00 | > 7.00 | 6.00 to 7.00 | – | –
O=C(O)CN1CCC(CCCC2CCN(c3cc(N4CC[C@H]4C(=O)NCCc4ccc(C(F)(F)F)cc4)nc(C(F)(F)F)n3)CC2)CC1 [Compound 281, (S)-2-(4-(3-(1-(2-(trifluoromethyl)-6-(2-((4-(trifluoromethyl)phenethyl)carbamoyl)-azetidin-1-yl)pyrimidin-4-yl)piperidin-4-yl)propyl)piperidin-1-yl)acetic acid] | > 7.00 | > 7.00 | – | 92 ng/mL | –
N#Cc1ccc(CCNC(=O)[C@@H]2CCN2c2cc(N3CCC(CCNc4c(NCCC(=O)O)c(=O)c4=O)CC3)nc(C(F)(F)F)n2)cc1 [Compound 301, (S)-3-((2-((2-(1-(6-(2-((4-cyanophenethyl)carbamoyl)azetidin-1-yl)-2-(trifluoromethyl)pyrimidin-4-yl)piperidin-4-yl)ethyl)amino)-3,4-dioxocyclobut-1-en-1-yl)amino)propanoic acid] | > 7.00 | > 7.00 | – | 2.6 ng/mL | –
COCCN1CCN(c2cc(N3CCC[C@@H](C(=O)NCCc4ccc(C(F)(F)F)cc4)C3)nc(C(F)(F)F)n2)CC1 [Compound 328, (R)-1-(6-(4-(2-methoxyethyl)piperazin-1-yl)-2-(trifluoromethyl)pyrimidin-4-yl)-N-(4-(trifluoromethyl)phenethyl)piperidine-3-carboxamide] | > 7.00 | > 7.00 | 6.00 to 7.00 | – | –
COc1cc(C(F)(F)F)ccc1CCNC(=O)[C@@H]1CCCN(c2cc(N3CCC(CCO)CC3)nc(C(F)(F)F)n2)C1 [Compound 332, (R)-1-(6-(4-(2-hydroxyethyl)piperidin-1-yl)-2-(trifluoromethyl)pyrimidin-4-yl)-N-(2-methoxy-4-(trifluoromethyl)-phenethyl)piperidine-3-carboxamide] | > 7.00 | > 7.00 | – | 37 ng/mL | –
CN(C)CCN1CCN(c2cc(N3CCC[C@@H](C(=O)NCCc4ccc(C#N)cc4)C3)nc(C(F)(F)F)n2)CC1 [Compound 333, (R)-N-(4-cyanophenethyl)-1-(6-(4-(2-(dimethylamino)ethyl)piperazin-1-yl)-2-(trifluoromethyl)pyrimidin-4-yl)piperidine-3-carboxamide] | > 7.00 | > 7.00 | 6.00 to 7.00 | – | –
N=C(N)NCCS(=O)(=O)N1CCN(c2cc(N3CCC[C@@H](C(=O)NCCc4ccc(C(F)(F)F)cc4)C3)nc(C(F)(F)F)n2)CC1 [Compound 349, (R)-1-(6-(4-((2-guanidinoethyl)sulfonyl)piperazin-1-yl)-2-(trifluoromethyl)-pyrimidin-4-yl)-N-(4-(trifluoromethyl)phenethyl)piperidine-3-carboxamide] | > 7.00 | > 7.00 | – | 1.7 ng/mL | –
N#Cc1ccc(CCNC(=O)[C@@H]2CCN2c2cc(N3CCC(CCNS(=O)(=O)NCCC(=O)O)CC3)nc(C(F)(F)F)n2)cc1 [Compound 355] | > 7.00 | > 7.00 | – | – | 48 ng/mL
N#Cc1ccc(CCNC(=O)[C@@H]2CCCN2c2cc(N3CCC(CCNC(=O)NCCOCCOCCOCCC(=O)O)CC3)nc(C(F)(F)F)n2)cc1 [Compound 364, (S)-1-(1-(6-(2-((4-cyanophenethyl)carbamoyl)pyrrolidin-1-yl)-2-(trifluoromethyl)pyrimidin-4-yl)piperidin-4-yl)-4-oxo-8,11,14-trioxa-3,5-diazaheptadecan-17-oic acid] | > 7.00 | > 7.00 | – | 8 ng/mL | –
